Results published in US20200031778A1, “NOVEL 5-SUBSTITUTED IMIDAZOLYLMETHYL DERIVATIVES” (Bayer CropScience Aktiengesellschaft, priority 2016, published 2020).

Key:
[1] = Log P by HPLC on reversed phase columns (EEC directive 79/831 Annex V.A8; methods [a], [b], [c]); assay type: physicochemical
Procedure, shortened: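 Log P derived from retention times, interpolated linearly between bracketing straight-chain alkan-2-ones (3–16 carbons) of known Log P. Eluents ran acetonitrile 10% to 95% against water with 0.1% formic acid ([a], acidic), 0.001 M ammonium acetate ([b], neutral) or 0.1% phosphoric acid ([c], acidic); UV read-out.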

Puccinia recondita [2] = experiment: Example B: in vivo preventive test on Puccinia recondita (brown rust on wheat); settings: 264 h, 500 ppm of active ingredient, wheat plants, preventive spray, evaluated 11 days after inoculation, read-out: efficacy
Experimental: Example B: In Vivo Preventive Test on Puccinia Recondita (Brown Rust on Wheat)
(§1) The active ingredients were made soluble and homogenized in a mixture of Dimethyl sulfoxide/Acetone/Tween® 80 and then diluted in water to the desired concentration.
(§2) The young plants of wheat were treated by spraying the active ingredient prepared as described above. Control plants were treated only with an aqueous solution of Acetone/Dimethyl sulfoxide/Tween® 80.
After 24 hours, the plants were contaminated by spraying the leaves with an aqueous suspension of Puccinia recondita spores. The contaminated wheat plants were incubated for 24 hours at 20° C. and at 100% relative humidity and then for 10 days at 20° C. and at 70-80% relative humidity.
(§3) The test was evaluated 11 days after the inoculation. 0% means an efficacy which corresponds to that of the control plants while an efficacy of 100% means that no disease was observed.

Septoria tritici [3] = experiment: Example C: in vivo preventive test on Septoria tritici (leaf spot on wheat); settings: Zymoseptoria tritici, 576 h; 500 ppm of active ingredient; wheat plants, preventive spray; evaluated 24 days after inoculation; read-out: efficacy
Experimental: Example C: In Vivo Preventive Test on Septoria Tritici (Leaf Spot on Wheat)
as §1, §2
After 24 hours, the plants were contaminated by spraying the leaves with an aqueous suspension of Septoria tritici spores. The contaminated wheat plants were incubated for 72 hours at 18° C. and at 100% relative humidity and then for 21 days at 20° C. and at 90% relative humidity.
The test was evaluated 24 days after the inoculation. 0% means an efficacy which corresponds to that of the control plants while an efficacy of 100% means that no disease was observed.

Sphaerotheca fuliginea [4] = experiment: Example D: in vivo preventive test on Sphaerotheca fuliginea (powdery mildew on cucurbits); settings: Podosphaera fuliginea, 360 h, read-out: efficacy
Experimental: Example D: In Vivo Preventive Test on Sphaerotheca Fuliginea (Powdery Mildew on Cucurbits)
as §1
The young plants of gherkin were treated by spraying the active ingredient prepared as described above. Control plants were treated only with an aqueous solution of Acetone/Dimethyl sulfoxide/Tween® 80.
After 24 hours, the plants were contaminated by spraying the leaves with an aqueous suspension of Sphaerotheca fuliginea spores. The contaminated gherkin plants were incubated for 72 hours at 18° C. and at 100% relative humidity and then for 12 days at 20° C. and at 70-80% relative humidity.
The test was evaluated 15 days after the inoculation. 0% means an efficacy which corresponds to that of the control plants while an efficacy of 100% means that no disease was observed.

Uromyces appendiculatus [5] = experiment: Example E: in vivo preventive test on Uromyces appendiculatus (bean rust); settings: 264 h, 500 ppm of active ingredient, bean plants, preventive spray, evaluated 11 days after inoculation, read-out: efficacy
Experimental: Example E: In Vivo Preventive Test on Uromyces Appendiculatus (Bean Rust)
as §1
The young plants of bean were treated by spraying the active ingredient prepared as described above. Control plants were treated only with an aqueous solution of Acetone/Dimethyl sulfoxide/Tween® 80.
After 24 hours, the plants were contaminated by spraying the leaves with an aqueous suspension of Uromyces appendiculatus spores. The contaminated bean plants were incubated for 24 hours at 20° C. and at 100% relative humidity and then for 10 days at 20° C. and at 70-80% relative humidity.
as §3

Puccinia recondita [6] = experiment: Example IX-A: in vivo preventive test on Puccinia recondita (brown rust on wheat); settings: 264 h, compounds of formula IX, 500 ppm of active ingredient, wheat plants, preventive spray, evaluated 11 days after inoculation, read-out: efficacy
Procedure, shortened: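 Young wheat plants sprayed with compound in DMSO/acetone/Tween 80 diluted in water, inoculated 24 h later with spore suspension. Incubated 24 h at 20 °C, 100% RH, then 10 days at 20 °C, 70-80% RH. Efficacy scored 11 days post-inoculation, 0% equal to solvent-treated controls, 100% no disease.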

Septoria tritici [7] = experiment: Example IX-B: in vivo preventive test on Septoria tritici (leaf spot on wheat); settings: Zymoseptoria tritici, 576 h; compounds of formula IX; 500 ppm of active ingredient; wheat plants, preventive spray; evaluated 24 days after inoculation; read-out: efficacy
Procedure, shortened: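 Wheat seedlings sprayed preventively with compound dissolved in DMSO/acetone/Tween 80 and diluted in water; solvent-only controls. Spore suspension of S. tritici sprayed 24 h later; 72 h at 18 °C/100% RH, then 21 days at 20 °C/90% RH. Efficacy scored 24 days post-inoculation, 0% = control, 100% = no disease.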

Sphaerotheca fuliginea [8] = experiment: Example IX-C: in vivo preventive test on Sphaerotheca fuliginea (powdery mildew on cucurbits); settings: Podosphaera fuliginea, 360 h; compounds of formula IX; 500 ppm of active ingredient; gherkin plants, preventive spray; evaluated 15 days after inoculation; read-out: efficacy
Procedure, shortened: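 Young gherkin plants sprayed with compound in DMSO/acetone/Tween 80 diluted in water, then inoculated 24 h later with Sphaerotheca fuliginea spores. Kept 72 h at 18 °C/100% RH, then 12 days at 20 °C/70-80% RH; efficacy scored 15 days post-inoculation, 0% = control, 100% = no disease.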

Uromyces appendiculatus [9] = experiment: Example IX-D: in vivo preventive test on Uromyces appendiculatus (bean rust); settings: 264 h, compounds of formula IX, 500 ppm of active ingredient, bean plants, preventive spray, evaluated 11 days after inoculation, read-out: efficacy
Procedure, shortened: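 Young bean plants sprayed with compound (DMSO/acetone/Tween 80 in water), then inoculated 24 h later with Uromyces appendiculatus spores. Kept 24 h at 20° C, 100% RH, then 10 days at 20° C, 70–80% RH; efficacy scored 11 days post-inoculation, 0% = untreated control, 100% = no disease.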

[10] = reversed phase HPLC column, HPLC on reversed phase columns, method [a]
[11] = 500 ppm of active ingredient, gherkin plants, preventive spray, evaluated 15 days after inoculation
[12] = reversed phase HPLC column, method [a]: LC-UV, acidic range, 0.1% formic acid in water and acetonitrile as eluent (linear gradient from 10% to 95% acetonitrile)

Row | SMILES | chromatographic logP [1, 10] | chromatographic logP [1, 12] | pest or weed control at 500 ppm (Puccinia recondita [2]) [%] | pest or weed control at 500 ppm (Septoria tritici [3]) [%] | pest or weed control at 500 ppm (Sphaerotheca fuliginea [4]; [11]) [%] | pest or weed control at 500 ppm (Uromyces appendiculatus [5]) [%] | chromatographic logP ([1]; HPLC on reversed phase column, method [a]) | pest or weed control at 500 ppm (Sphaerotheca fuliginea [4]) [%] | chromatographic logP ([1]; HPLC on reversed phase columns, method [a]) | pest or weed control at 500 ppm (Puccinia recondita [6]) [%] | pest or weed control at 500 ppm (Septoria tritici [7]) [%] | pest or weed control at 500 ppm (Sphaerotheca fuliginea [8]) [%] | pest or weed control at 500 ppm (Uromyces appendiculatus [9]) [%]
1 | C=CC(C)C(O)(Cn1cncc1C#N)C1(Cl)CC1 (stereo not shown) [I-311, 1-[2-(1-chlorocyclopropyl)-2-hydroxy-3-methylpent-4-en-1-yl]-1H-imidazole-5-carbonitrile] | 2.21 | – | 80 to 89 | 90 to 100 | 90 to 100 | 90 to 100 | – | – | – | – | – | – | –
2 | CC(O)(Cn1cncc1F)c1cnc(Oc2ccc(Br)cc2)cc1C(F)(F)F (stereo not shown) [I-210, 2-[6-(4-bromophenoxy)-4-(trifluoromethyl)-3-pyridyl]-1-(5-fluoroimidazol-1-yl)propan-2-ol] | 2.37 | – | 70 to 79 | 90 to 100 | 90 to 100 | 90 to 100 | – | – | – | – | – | – | –
3 | N#Cc1cncn1CC(O)(C#CC1CCCCC1)C1(Cl)CC1 (stereo not shown) [I-542, 1-[2-(1-chlorocyclopropyl)-4-cyclohexyl-2-hydroxybut-3-yn-1-yl]-1H-imidazole-5-carbonitrile] | – | – | – | – | – | – | 2.96 | 80 to 89 | – | – | – | – | –
4 | CCC(O)(Cn1cncc1C#N)c1ccc(F)cc1 (stereo not shown) [I-245, 3-[2-(4-fluorophenyl)-2-hydroxy-butyl]imidazole-4-carbonitrile] | 1.57 | – | – | 90 to 100 | 90 to 100 | – | – | – | – | – | – | – | –
5 | NC(=S)c1cncn1CC(O)(c1ccc(Br)cc1Cl)C1(F)CC1 (stereo not shown) [I-432, 3-[2-(4-bromo-2-chloro-phenyl)-2-(1-fluorocyclopropyl)-2-hydroxy-ethyl]imidazole-4-carbothioamide] | 1.75 | – | 90 to 100 | 90 to 100 | 90 to 100 | 90 to 100 | – | – | – | – | – | – | –
6 | CC(=O)OC(Cn1cncc1F)c1cnc(Oc2ccc(Cl)cc2)cc1C(F)(F)F (stereo not shown) [I-133, [1-[6-(4-chlorophenoxy)-4-(trifluoromethyl)-3-pyridyl]-2-(5-fluoroimidazol-1-yl)ethyl]acetate] | – | – | 90 to 100 | 90 to 100 | 90 to 100 | 90 to 100 | – | – | – | – | – | – | –
7 | COC(Cn1cncc1F)c1cnc(Oc2ccc(Cl)cc2)cc1C(F)(F)F (stereo not shown) [I-131, 2-(4-chlorophenoxy)-5-[2-(5-fluoroimidazol-1-yl)-1-methoxy-ethyl]-4-(trifluoromethyl)pyridine] | 2.82 | – | 90 to 100 | 90 to 100 | 90 to 100 | – | – | – | – | – | – | – | –
8 | C[Si](C)(C)C#Cc1ccc(C(O)(Cn2cncc2C#N)C2(F)CC2)c(Cl)c1 (stereo not shown) [I-394, 3-[2-[2-chloro-4-(2-trimethylsilylethynyl)phenyl]-2-(1-fluorocyclopropyl)-2-hydroxy-ethyl]imidazole-4-carbonitrile] | – | – | – | 90 to 100 | 90 to 100 | – | – | – | 4.06 | – | – | – | –

More lines, main results first:

Row | chromatographic logP [1, 10] | chromatographic logP [1, 12] | SMILES | pest or weed control at 500 ppm (Puccinia recondita [2]) [%] | pest or weed control at 500 ppm (Septoria tritici [3]) [%] | pest or weed control at 500 ppm (Sphaerotheca fuliginea [4]; [11]) [%] | pest or weed control at 500 ppm (Uromyces appendiculatus [5]) [%] | chromatographic logP ([1]; HPLC on reversed phase column, method [a]) | pest or weed control at 500 ppm (Sphaerotheca fuliginea [4]) [%] | chromatographic logP ([1]; HPLC on reversed phase columns, method [a]) | pest or weed control at 500 ppm (Puccinia recondita [6]) [%] | pest or weed control at 500 ppm (Septoria tritici [7]) [%] | pest or weed control at 500 ppm (Sphaerotheca fuliginea [8]) [%] | pest or weed control at 500 ppm (Uromyces appendiculatus [9]) [%]
9 | – | 3.53 | N#Cc1cncn1CC(=O)c1ccc(Oc2ccc(Cl)cc2)cc1Br [IX-61] | – | – | – | – | – | – | – | 90 to 100 | 80 to 89 | 90 to 100 | 90 to 100
10 | – | 2.5 | O=C(Cn1cncc1F)c1cnc(Oc2ccc(Cl)cc2)cc1C(F)(F)F [IX-104] | – | – | – | – | – | – | – | 90 to 100 | 90 to 100 | 90 to 100 | 90 to 100
11 | – | 3.85 | O=C(Cn1cncc1C(F)(F)F)c1ccc(Oc2ccc(Cl)cc2)cc1F [IX-80] | – | – | – | – | – | – | – | 90 to 100 | 90 to 100 | 90 to 100 | 90 to 100
12 | – | 2.75 | O=C(Cn1cncc1Cl)c1ccc(Oc2ccc(Cl)cc2)cc1F [IX-45] | – | – | – | – | – | – | – | 90 to 100 | 90 to 100 | 90 to 100 | 70 to 79
13 | – | 3.37 | O=C(Cn1cncc1Cl)c1ccc(Oc2ccc(OC(F)(F)F)cc2)cc1Cl [IX-09] | – | – | – | – | – | – | – | 90 to 100 | 90 to 100 | 90 to 100 | 90 to 100
14 | – | 3.1 | O=C(Cn1cncc1Br)c1ccc(Oc2ccc(Br)cc2)cc1Cl [IX-39, 1-[4-(4-bromophenoxy)-2-chloro-phenyl]-2-(5-bromoimidazol-1-yl)ethanone] | – | – | – | – | – | – | – | 90 to 100 | 90 to 100 | 90 to 100 | 90 to 100
15 | – | 3.13 | O=C(Cn1cncc1Cl)c1ccc(Oc2ccc(Br)cc2)cc1Cl [IX-15, 1-[4-(4-bromophenoxy)-2-chloro-phenyl]-2-(5-chloroimidazol-1-yl)ethanone] | – | – | – | – | – | – | – | 90 to 100 | 90 to 100 | 90 to 100 | 90 to 100
16 | – | 3.09 | Cc1ccc(Oc2ccc(C(=O)Cn3cncc3Cl)c(Cl)c2)cc1 [IX-07] | – | – | – | – | – | – | – | 90 to 100 | 90 to 100 | 90 to 100 | 90 to 100
17 | – | 3.64 | N#Cc1cncn1CC(=O)c1cnc(Oc2ccc(OC(F)(F)F)cc2)cc1C(F)(F)F [IX-112] | – | – | – | – | – | – | – | 80 to 89 | 80 to 89 | 90 to 100 | 90 to 100
18 | – | 3.19 | O=C(Cn1cncc1Cl)c1ccc(Oc2ccc(I)cc2)cc1F [IX-47] | – | – | – | – | – | – | – | 90 to 100 | 90 to 100 | 90 to 100 | 90 to 100
19 | – | 3.15 | O=C(Cn1cncc1Cl)c1ccc(Oc2ccc(Cl)cc2)cc1Br [IX-34] | – | – | – | – | – | – | – | 80 to 89 | 90 to 100 | 90 to 100 | 90 to 100
20 | – | 3.62 | N#Cc1cncn1CC(=O)c1ccc(Oc2ccc(Br)cc2)cc1Br [IX-67] | – | – | – | – | – | – | – | 90 to 100 | 90 to 100 | 90 to 100 | 90 to 100
